According to patent US20230212549A1, “COMPOUNDS COMPRISING A […] LIGAND AND USE THEREOF” (priority 2021, published 2023):
Numbered stars: 1 amine (or outer) side, 2 acyl side, 3 side chain; on linkers, the order of the positions; unused ones are H or OH. Bridge positions count the residues as written; N and C are the ends. Square brackets hold non-standard residues; d marks the D form. Peptide text beside a SMILES is read from it. * marks the point of attachment. DOTA = O=C(O)CN1CCN(CC(=O)O)CCN(CC(=O)*)CCN(CC(=O)O)CC1; Pro(trans-4-Ph) = O=C(O)[C@@H]1C[C@@H](c2ccccc2)CN1; Pro(trans-4-F) = O=C(O)[C@@H]1C[C@@H](F)CN1; Bip = N[C@@H](Cc1ccc(-c2ccccc2)cc1)C(=O)O; 1Nal = N[C@@H](Cc1cccc2ccccc12)C(=O)O; 2Nal = N[C@@H](Cc1ccc2ccccc2c1)C(=O)O; Met(O2) = CS(=O)(=O)CC[C@H](N)C(=O)O; mXylylene = c1cc(C[*:1])cc(C[*:2])c1; Pyrazinecarbonyl = O=C(c1cnccn1)*; NMeF = CN[C@@H](Cc1ccccc1)C(=O)O; NMeE = CN[C@@H](CCC(=O)O)C(=O)O; Tic = O=C(O)[C@@H]1Cc2ccccc2CN1; Pen = CC(C)(S)[C@H](N)C(=O)O; Nphe = O=C(O)CNCc1ccccc1; Orn = NCCC[C@H](N)C(=O)O; Hexanoyl = CCCCCC(=O)*; AEEA = NCCOCCOCC(=O)O; Sar = CNCC(=O)O

Columns and labels:
[1] = biological target: T1, FAP-expressing human WI-38 fibroblasts (Homo sapiens, UniProt Q12884); test: Competitive FACS binding assay
T1 construct: FAP-expressing human WI-38 fibroblasts (ECACC) were cultured in EMEM; host or cells: WI-38 human fibroblasts
T1 sequence (Q12884 whole entry): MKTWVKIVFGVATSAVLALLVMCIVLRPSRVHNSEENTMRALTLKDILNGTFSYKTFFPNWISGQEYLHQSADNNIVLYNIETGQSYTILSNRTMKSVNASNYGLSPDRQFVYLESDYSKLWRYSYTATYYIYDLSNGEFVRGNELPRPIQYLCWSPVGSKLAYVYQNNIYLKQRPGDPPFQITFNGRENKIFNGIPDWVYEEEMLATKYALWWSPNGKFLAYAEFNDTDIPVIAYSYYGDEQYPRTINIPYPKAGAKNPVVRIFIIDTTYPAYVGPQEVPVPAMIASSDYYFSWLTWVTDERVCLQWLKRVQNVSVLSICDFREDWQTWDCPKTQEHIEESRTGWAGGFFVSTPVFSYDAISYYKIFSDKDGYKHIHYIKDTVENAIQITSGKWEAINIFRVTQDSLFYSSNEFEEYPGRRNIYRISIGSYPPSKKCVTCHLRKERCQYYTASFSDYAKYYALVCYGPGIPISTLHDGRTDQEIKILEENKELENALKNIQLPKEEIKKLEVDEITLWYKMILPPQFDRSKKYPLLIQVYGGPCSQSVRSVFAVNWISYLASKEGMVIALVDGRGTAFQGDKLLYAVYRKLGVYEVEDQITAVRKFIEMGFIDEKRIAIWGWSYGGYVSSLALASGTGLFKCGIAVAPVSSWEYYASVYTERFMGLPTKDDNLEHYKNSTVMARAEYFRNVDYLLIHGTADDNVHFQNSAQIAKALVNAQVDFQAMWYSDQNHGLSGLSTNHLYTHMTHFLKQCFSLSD
Description: Cells were analyzed in an Attune NxT flow cytometer. […] […].
Cells were analyzed in an Attune NxT flow cytometer. […]

Human recombinant FAP = Human recombinant FAP (Homo sapiens, UniProt Q12884); test: FRET-based FAP protease activity assay; type: biochemical; parameters: purchased R&D systems 3715-SE; settings: pIC50 Category (Activity), FRET-based FAP protease activity assay, recombinant human FAP, 37° C.
Sequence of Human recombinant FAP (Q12884 whole entry): as above

With `C[C@@H](O)[C@@H]1NC(=O)[C@@H]2CCCN2C(=O)[C@@H]2CCCN2C(=O)[C@@H](NC(=O)COCCOCCNC(=O)CN2CCN(CC(=O)O)CCN(CC(=O)O)CCN(CC(=O)O)CC2)CSCc2cccc(c2)CSC[C@@H](C(=O)N[C@@H](CC(=O)O)C(=O)N[C@@H](Cc2c[nH]cn2)C(=O)N(C)[C@@H](Cc2ccccc2)C(=O)N[C@@H](CCCNC(=N)N)C(=O)N[C@@H](CC(=O)O)C(N)=O)NC(=O)[C@H](Cc2ccccc2)NC(=O)[C@H](CCC(=O)O)NC1=O` [3BP-3267, DOTA-O2Oc-[Cys(3MeBn)-Pro-Pro-Thr-Glu-Phe-Cys]-Asp-His-Nmf-Arg-Asp-NH2] ({DOTA-AEEA}-CPPTEFCDH[NMeF]RD-NH2; linker 1-7 via mXylylene) the IC50 [1] was 100 to 794 nM and the IC50 (Human recombinant FAP) was 100 to 794 nM.
For `CCCCCC(=O)N[C@H]1CSCc2cccc(c2)CSC[C@@H](C(=O)N[C@@H](CC(=O)O)C(=O)N[C@@H](CCCNC(=N)N)C(N)=O)NC(=O)[C@H](Cc2ccccc2)NC(=O)[C@H](CCC(=O)O)NC(=O)[C@H]([C@@H](C)O)NC(=O)[C@@H]2CCCN2C(=O)[C@@H]2CCCN2C1=O` [3BP-3299, Hex-[Cys(3MeBn)-Pro-Pro-Thr-Glu-Phe-Cys]-Asp-Arg-NH2] (Hexanoyl-CPPTEFCDR-NH2; linker 1-7 via mXylylene), the IC50 [1] was < 10 nM and the IC50 (Human recombinant FAP) was < 10 nM.
`CCCCCC(=O)N[C@H]1CSCc2cccc(c2)CSC[C@@H](C(N)=O)NC(=O)[C@H](Cc2ccccc2)NC(=O)[C@H](CCC(=O)O)NC(=O)[C@H]([C@@H](C)O)NC(=O)[C@@H]2CCCN2C(=O)CN(C)C1=O` [3BP-3347, Hex-[Cys(3MeBn)-Nmg-Pro-Thr-Glu-Phe-Cys]-NH2] (Hexanoyl-C[Sar]PTEFC-NH2; linker 1-7 via mXylylene) gave an IC50 [1] of 100 to 794 nM and an IC50 (Human recombinant FAP) of 10 to 79.4 nM.
`CCCCCC(=O)N[C@H]1CSCc2cccc(c2)CSC(C)(C)[C@@H](C(N)=O)NC(=O)[C@H](Cc2ccccc2)NC(=O)[C@H](CCC(=O)O)NC(=O)[C@H]([C@@H](C)O)NC(=O)[C@@H]2CCCN2C(=O)[C@@H]2CCCN2C1=O` [3BP-3351, Hex-[Cys(3MeBn)-Pro-Pro-Thr-Glu-Phe-Pen]-NH2] (Hexanoyl-CPPTEF[Pen]-NH2; linker 1-7 via mXylylene) was tested, and the IC50 [1] was > 1000 nM and the IC50 (Human recombinant FAP) was 100 to 794 nM.
Work on `CCCCCC(=O)N[C@H]1CSCc2cccc(c2)CSC[C@@H](C(N)=O)NC(=O)[C@H](Cc2ccccc2)NC(=O)[C@H](CCC(=O)O)NC(=O)[C@H]([C@@H](C)O)NC(=O)[C@@H]2C[C@@H](F)CN2C(=O)[C@@H]2CCCN2C1=O` [3BP-3352, Hex-[Cys(3MeBn)-Pro-4Tfp-Thr-Glu-Phe-Cys]-NH2] (Hexanoyl-CP[Pro(trans-4-F)]TEFC-NH2; linker 1-7 via mXylylene) yielded an IC50 [1] of 100 to 794 nM and an IC50 (Human recombinant FAP) of 10 to 79.4 nM.
In the case of `CCCCCC(=O)N[C@H]1CSCc2cccc(c2)CSC[C@@H](C(N)=O)NC(=O)[C@H](Cc2ccccc2)NC(=O)[C@H](CCC(=O)O)NC(=O)[C@H]([C@@H](C)O)NC(=O)[C@@H]2C[C@@H](c3ccccc3)CN2C(=O)[C@@H]2CCCN2C1=O` [3BP-3353, Hex-[Cys(3MeBn)-Pro-Eay-Thr-Glu-Phe-Cys]-NH2] (Hexanoyl-CP[Pro(trans-4-Ph)]TEFC-NH2; linker 1-7 via mXylylene), the IC50 [1] is reported as > 1000 nM and the IC50 (Human recombinant FAP) is reported as 100 to 794 nM.
With `CCCCCC(=O)N[C@H]1CSCc2cccc(c2)CSC[C@@H](C(N)=O)NC(=O)[C@H](Cc2ccccc2)NC(=O)[C@H](CCC(=O)O)NC(=O)[C@H](CCCNC(=O)c2cnccn2)NC(=O)[C@@H]2CCCN2C(=O)[C@@H]2CCCN2C1=O` [3BP-3355, Hex-[Cys(3MeBn)-Pro-Pro-Opc-Glu-Phe-Cys]-NH2] (Hexanoyl-CPP[Orn](Pyrazinecarbonyl)EFC-NH2; linker 1-7 via mXylylene) the IC50 [1] was > 1000 nM and the IC50 (Human recombinant FAP) was 100 to 794 nM.
In the case of `CCCCCC(=O)N[C@H]1CSCc2cccc(c2)CSC[C@@H](C(N)=O)NC(=O)[C@H](Cc2ccccc2)NC(=O)[C@H](CCS(C)(=O)=O)NC(=O)[C@H]([C@@H](C)O)NC(=O)[C@@H]2CCCN2C(=O)[C@@H]2CCCN2C1=O` [3BP-3356, Hex-[Cys(3MeBn)-Pro-Pro-Thr-Moo-Phe-Cys]-NH2] (Hexanoyl-CPPT[Met(O2)]FC-NH2; linker 1-7 via mXylylene), the IC50 [1] is reported as > 1000 nM and the IC50 (Human recombinant FAP) is reported as > 1000 nM.
For `CCCCCC(=O)N[C@H]1CSCc2cccc(c2)CSC[C@@H](C(N)=O)NC(=O)[C@H](Cc2ccccc2)NC(=O)[C@H](CCC(=O)O)N(C)C(=O)[C@H]([C@@H](C)O)NC(=O)[C@@H]2CCCN2C(=O)[C@@H]2CCCN2C1=O` [3BP-3357, Hex-[Cys(3MeBn)-Pro-Pro-Thr-Nme-Phe-Cys]-NH2] (Hexanoyl-CPPT[NMeE]FC-NH2; linker 1-7 via mXylylene), the IC50 [1] was > 1000 nM and the IC50 (Human recombinant FAP) was > 1000 nM.
With `CCCCCC(=O)N[C@H]1CSCc2cccc(c2)CSC[C@@H](C(N)=O)NC(=O)[C@H](Cc2ccccc2)N(C)C(=O)[C@H](CCC(=O)O)NC(=O)[C@H]([C@@H](C)O)NC(=O)[C@@H]2CCCN2C(=O)[C@@H]2CCCN2C1=O` [3BP-3358, Hex-[Cys(3MeBn)-Pro-Pro-Thr-Glu-Nmf-Cys]-NH2] (Hexanoyl-CPPTE[NMeF]C-NH2; linker 1-7 via mXylylene) the IC50 [1] was > 1000 nM and the IC50 (Human recombinant FAP) was 100 to 794 nM.
`CCCCCC(=O)N[C@H]1CSCc2cccc(c2)CSC[C@@H](C(N)=O)NC(=O)[C@@H]2Cc3ccccc3CN2C(=O)[C@H](CCC(=O)O)NC(=O)[C@H]([C@@H](C)O)NC(=O)[C@@H]2CCCN2C(=O)[C@@H]2CCCN2C1=O` [3BP-3359, Hex-[Cys(3MeBn)-Pro-Pro-Thr-Glu-Tic-Cys]-NH2] (Hexanoyl-CPPTE[Tic]C-NH2; linker 1-7 via mXylylene) was tested, and the IC50 [1] was > 1000 nM and the IC50 (Human recombinant FAP) was 100 to 794 nM.
`CCCCCC(=O)N[C@H]1CSCc2cccc(c2)CSC[C@@H](C(N)=O)NC(=O)CN(Cc2ccccc2)C(=O)[C@H](CCC(=O)O)NC(=O)[C@H]([C@@H](C)O)NC(=O)[C@@H]2CCCN2C(=O)[C@@H]2CCCN2C1=O` [3BP-3360, Hex-[Cys(3MeBn)-Pro-Pro-Thr-Glu-Nphe-Cys]-NH2] (Hexanoyl-CPPTE[Nphe]C-NH2; linker 1-7 via mXylylene) was tested, and the IC50 [1] was > 1000 nM and the IC50 (Human recombinant FAP) was > 1000 nM.
Work on `CCCCCC(=O)N[C@H]1CSCc2cccc(c2)CSC[C@@H](C(N)=O)NC(=O)[C@H](Cc2cccc3ccccc23)NC(=O)[C@H](CCC(=O)O)NC(=O)[C@H]([C@@H](C)O)NC(=O)[C@@H]2CCCN2C(=O)[C@@H]2CCCN2C1=O` [3BP-3361, Hex-[Cys(3MeBn)-Pro-Pro-Thr-Glu-1Ni-Cys]-NH2] (Hexanoyl-CPPTE[1Nal]C-NH2; linker 1-7 via mXylylene) yielded an IC50 [1] of 10 to 79.4 nM and an IC50 (Human recombinant FAP) of 10 to 79.4 nM.
Work on `CCCCCC(=O)N[C@H]1CSCc2cccc(c2)CSC[C@@H](C(N)=O)NC(=O)[C@H](Cc2ccc3ccccc3c2)NC(=O)[C@H](CCC(=O)O)NC(=O)[C@H]([C@@H](C)O)NC(=O)[C@@H]2CCCN2C(=O)[C@@H]2CCCN2C1=O` [3BP-3362, Hex-[Cys(3MeBn)-Pro-Pro-Thr-Glu-2Ni-Cys]-NH2] (Hexanoyl-CPPTE[2Nal]C-NH2; linker 1-7 via mXylylene) yielded an IC50 [1] of 100 to 794 nM and an IC50 (Human recombinant FAP) of 100 to 794 nM.
For `CCCCCC(=O)N[C@H]1CSCc2cccc(c2)CSC[C@@H](C(N)=O)NC(=O)[C@H](Cc2ccc(-c3ccccc3)cc2)NC(=O)[C@H](CCC(=O)O)NC(=O)[C@H]([C@@H](C)O)NC(=O)[C@@H]2CCCN2C(=O)[C@@H]2CCCN2C1=O` [3BP-3363, Hex-[Cys(3MeBn)-Pro-Pro-Thr-Glu-Bip-Cys]-NH2] (Hexanoyl-CPPTE[Bip]C-NH2; linker 1-7 via mXylylene), the IC50 [1] was > 1000 nM and the IC50 (Human recombinant FAP) was > 1000 nM.
